Tested on: neuronal protein extravasation
Assay: Neuronal protein extravasation in dura after electrical stimulation of the trigeminal ganglion (Evans Blue)
Assay type: in vivo, Harlan Sprague-Dawley rats or guinea pigs
Experimental: Harlan Sprague-Dawley rats (225-325 g) or guinea pigs from Charles River Laboratories (225-325 g) were anesthetized with sodium pentobarbital intraperitoneally (65 mg/kg or 45 mg/kg respectively) and placed in a stereotaxic frame (David Kopf Instruments) with the incisor bar set at - 3.5 mm for rats or -4.0 mm for guinea pigs. Following a midline sagital scalp incision, two pairs of bilateral holes were drilled through the skull (6 mm posteriorly, 2.0 and 4.0 mm laterally in rats; 4 mm posteriorly and 3.2 and 5.2 mm laterally in guinea pigs, all coordinates referenced to bregma). Pairs of stainless steel stimulating electrodes (Rhodes Medical Systems, Inc.) were lowered through the holes in both hemispheres to a depth of 9 mm (rats) or 10.5 mm (guinea pigs) from dura.
The femoral vein was exposed and a dose of the test compound was injected intravenously (1 mL/kg). […]
A fluorescence microscope (Zeiss) equipped with a grating monochromator and a spectrophotometer was used to quantify the amount of Evans Blue dye in each sample. An excitation wavelength of approximately 535 nm was utilized and the emission intensity at 600 nm was determined. […] This facilitated the computer-controlled movement of the stage with fluorescence measurements at 25 points (500 µm steps) on each dural sample. The mean and standard deviation of the measurements was determined by the computer. […]

Row | SMILES | Inhibition of Protein Extravasation i.v. ID50 (i.v., 10 minutes before stimulation of the trigeminal ganglion, species (rat or guinea pig) not given, ID50 approximated from dose-response curve) | Inhibition of Protein Extravasation i.v. ID50 (mMol/kg) (iv)
1 | O=C(O)C(=O)O.Oc1ccc2[nH]cc(C3CCNCC3)c2c1 [Compound III, 5-hydroxy-3-(4-piperidinyl)-1H-indole oxalate] | 8.9e-09 mmol/kg | –
2 | CCN(CC)C1CCc2cccc(Cl)c2C1.Cl (centres unmarked) [Compound IV, 8-chloro-2-diethylamino-1,2,3,4-tetrahydronaphthalene hydrochloride] | – | 1.2x10-^7 mMol/kg

From patent EP0929299B1, “SUBSTITUTED 1,2,3,4-TETRAHYDRO-2-DIBENZOFURANAMINES AND 2-AMINOCYCLOHEPTA(b)BENZOFURANS” (ELI LILLY AND COMPANY, priority 1996, dated 1998)
